Measurements as given in publication PMC7865754, “Design and Synthesis of π-Extended Resveratrol Analogues and In Vitro Antioxidant and Anti-Inflammatory Activity Evaluation” (Molecules, 2021).
Values joined by “and” are separate entries in the source; they are usually repeats but may differ in a detail not shown here. Equal values may be shown once.

Key:
[1] = In vitro ABTS radical scavenging assay; conditions: mean ± SEM, n = 3; 30 min incubation, absorbance at 734 nm
Description: ABTS (2,2′-azinobis (3-ethylbenzothiazoline-6-sulfonic acid) diammonium salt) assay was used for the antioxidant estimation. Though many methods are available, this appears to be the most popular because of its operational simplicity, short experimental time, and the employment of the inexpensive spectrophotometer.
Antioxidant activity was tested in the dark room by ABTS assay. UV-1800 (Shimadzu Corporation, Kyoto, Japan) was used to measure UV absorption. Hellma’s 104.600-QC Quartz cell was used as a UV cell. IC50 values were obtained using OriginPro 8.0 software (OriginLab Corporation, Northampton, MA, USA).
Antioxidant assay using ABTS
The radical cation was prepared by mixing an equal amount of 7mM ABTS (2,2’-azino-bis(3-ethylbenzothiazoline-6-sulphonic acid)) stock solution with 2.45 mM potassium persulfate stock solution. This mixture was stored at 0 °C for 12 hours under darkness. The above ABTS […]
Then these solutions were diluted with methanol to 500 µM, 250 µM, 125 µM, 62.5 µM, […]
tubes, 0.9 mL of the ABTS solution and 0.1 mL of the compound solution were mixed under darkness. After 30 min of incubation, the UV absorption at 734 nm was measured. Control was used the mixture of 0.9 mL ABTS and 0.1 mL methanol. […]
(§1) Statistical analysis. Statistical significance was analyzed using the GraphPad Prism 5 software (GraphPad Software, San Diego, CA, USA). The comparison of two groups was performed by the unpaired t test. Values of *P less than 0.05, **P less than 0.01 and ***P less than 0.001 were considered statistically significant.

[2] = test system: RAW 264.7 cells; experiment: Cell viability (MTT) assay; type: cell-based; conditions: for Cell Viability LD50: 24 h
Description: In the pathogenesis of inflammatory-related disorders, NO is recognized as one of the important mediators. […] Herein, to understand the anti-inflammatory properties of the resveratrol analogues, we studied their inhibitory effects against NO production in LPS-treated RAW 264.7 cells. Although it is not possible to measure NO quantitatively in a biological environment due to its rapid oxidation to NO2 (nitrite), short physiological half-life and presence of other free radicals, NO secretion activity in cells is indirectly determined by Griess assay counting its stable product NO2 levels. The inhibitory effects of 1–7 on NO production were collected in Table 2. […] Cell viability was not affected up to 50 μM except for 2. We also applied in vitro efficacy index (iEI) paradigm, the ratio of toxicity (LD50)/anti-inflammatory potency (ED50), to confirm that the anti-inflammatory activity is in the viable cells only. […] On the whole, compounds 5 and 7 have much-improved iEI values compared to any other compounds. […]
NO assay and cell viability test
Murine macrophage, Raw 264.7 cells were grown in Dulbecco’s modified Eagle’s medium (Gibco, Carlsbad , CA, USA), supplemented with 2 mM glutamine, antibiotics (100 U/mL of penicillin A and […] of streptomycin) and 10% FBS (Gibco). Cells were cultured in 96-well plates (5×10^4 cells), treated with serial dilutions of compound (3.125-100 µM) and stimulated with LPS (1 µg/mL) for 24 h at 37°C. After incubation, the supernatant was collected and the amount of nitrite was quantified using the Griess Reagent System ( Promega, Fitchburg, WI, USA ). For the correction of NO production, cell viability was measured using the CellTiter 96® Aqueous one solution cell proliferation assay kit (Promega). Cells were incubated with varying amounts of compound for 24 h, then MTS (tetrazolium salt) reagent was added to the plates. After 1h, the absorbance at 490 nm was read using a microplate reader (Thermo Scientific, Waltham, MA, USA).
as §1

[3] = test system: IL-1β gene expression in LPS-stimulated RAW 264.7 cells; experiment: Pro-inflammatory cytokine gene expression by endpoint RT-PCR, IL-1β; type: cell-based, Murine; conditions: 12.5~50 μM compound, 1 μg/mL LPS, 24 h
Description: (§2) We have further investigated whether resveratrol and its analogues can reduce the inflammatory activity of macrophages. For this purpose, we examined the downregulation of pro-inflammatory cytokine gene expression of LPS-stimulated RAW 264.7 cells by potent inhibitors of NO production (1, 2, 5, and 7) (Figure 2). […] Treatment with 50 μM of analogue 2 was highly toxic to the cells.
(§3) Figure 2 Inhibitory effects of 1–7 on pro-inflammatory cytokine production of activated macrophage cells. RAW 264.7 cells were treated with 1 μg/mL LPS for 24 h in the presence of the indicated amounts (12.5~50 μM) of compounds. Gene expression levels were analyzed by endpoint reverse transcriptase-polymerase chain reaction and 1.5% agarose gel electrophoresis. GAPDH was used as a control.
(§4) Reverse transcriptase-polymerase chain reaction (RT-PCR)
(§5) Total RNA was isolated from Raw 264.7 cells using TRIzol reagent (Invitrogen, Waltham,
(§6) MA, USA). Relative levels of pro-inflammatory cytokine gene expression were tested by
(§7) 1.5% agarose gel electrophoresis after endpoint RT-PCR using GoScript™ Reverse
(§8) Transcriptase (Promega). The sequences of the sense and anti-sense primers used for
(§9) amplification are as follows. IL-1β, 5’-[…]-3’, 5’-
(§10) TNF-α, 5’-[…]-3’, 5’-GGCACCA
(§11) -3’. As a control, glyceraldehyde-3-phosphate dehydrogenase
(§12) (GAPDH) gene was also amplified using 5’-[…]-3’, 5’-
(§13) (1 picture or pasted object on this page, not shown here)

[4] = test system: IL-6 gene expression in LPS-stimulated RAW 264.7 cells; experiment: Pro-inflammatory cytokine gene expression by endpoint RT-PCR, IL-6; type: cell-based, Murine; conditions: 12.5~50 μM compound, 1 μg/mL LPS, 24 h
Description: as §2, §3, §4, §5, §6, §7, §8, §9, §10, §11, §12, §13

[5] = test system: TNF-α gene expression in LPS-stimulated RAW 264.7 cells; experiment: Pro-inflammatory cytokine gene expression by endpoint RT-PCR, TNF-α; type: cell-based, Murine; conditions: 12.5~50 μM compound, 1 μg/mL LPS, 24 h
Description: as §2, §3, §4, §5, §6, §7, §8, §9, §10, §11, §12, §13

[6] = test system: NO production in LPS-treated RAW 264.7 cells; experiment: Inhibition of NO production (Griess assay, nitrite) in LPS-treated RAW 264.7 cells; type: cell-based, Murine; conditions: LPS 1 μg/mL, 24 h, NO2 released into culture media, mean ± SEM, n = 3
Description: In the pathogenesis of inflammatory-related disorders, NO is recognized as one of the important mediators. […] Herein, to understand the anti-inflammatory properties of the resveratrol analogues, we studied their inhibitory effects against NO production in LPS-treated RAW 264.7 cells. Although it is not possible to measure NO quantitatively in a biological environment due to its rapid oxidation to NO2 (nitrite), short physiological half-life and presence of other free radicals, NO secretion activity in cells is indirectly determined by Griess assay counting its stable product NO2 levels. The inhibitory effects of 1–7 on NO production were collected in Table 2. […] Cell viability was not affected up to 50 μM except for 2. […]
Anti-inflammatory activity was measured as the effect of compounds on inhibiting NO production versus cell viability. […]
Murine macrophage, Raw 264.7 cells were grown in Dulbecco’s modified Eagle’s medium (Gibco, Carlsbad , CA, USA), supplemented with 2 mM glutamine, antibiotics (100 U/mL of penicillin A and […] of streptomycin) and 10% FBS (Gibco). […] After incubation, the supernatant was collected and the amount of nitrite was quantified using the Griess Reagent System ( Promega, Fitchburg, WI, USA ). For the correction of NO production, cell viability was measured using the CellTiter 96® Aqueous one solution cell proliferation assay kit (Promega). […]

[7] = RAW 264.7 cells, mean ± SEM, n = 3

Compound | IC50 [1] [µM] | Cell Viability LD50 ([2]; mouse) [µM] | Level of IL-1β gene expression [3] | Level of IL-6 gene expression [4] | Level of TNF-α gene expression [5] | Toxicity to the cells ([2]; 50 μM, LPS-stimulated RAW 264.7 cells, seen in the RT-PCR experiment (RNA degraded, no PCR amplification)) | Cell Viability LD50 [2, 7] [µM] | NO/MTT Assay ED50 [6]
O=C1O[C@H]([C@@H](O)CO)C(O)=C1O [Ascorbic acid, reference compound] | 19.8 ± 0.934 | – | – | – | – | – | – | –
Oc1ccc(/C=C/c2cc(O)cc(O)c2)cc1 [Compound 1, 3,5,4′-trihydroxy-trans-stilbene, reference compound] | – | 81.08 ± 9.258 | significantly reduced | significantly reduced | did not change | – | – | –
Oc1cc(O)cc(/C=C/c2ccc3cc(O)ccc3c2)c1 [Compound 2] | 3.14 ± 0.445 | – | significantly reduced | significantly reduced | did not change | highly toxic | 28.82 ± 0.767 | –
Oc1cc(O)cc(/C=C/c2cnc3cc(O)ccc3c2)c1 [Compound 3] | 3.57 ± 0.496 | – | – | – | – | – | 167.12 ± 13.652 | –
Oc1cc(O)cc(/C=C/c2ccc3cc(O)ccc3n2)c1 [Compound 4] | 3.61 ± 0.253 | – | – | – | – | – | 123.47 ± 6.388 | –
Oc1cc(O)cc(/C=C/c2cc3ccc(O)cc3cn2)c1 [Compound 5] | 2.81 ± 0.034 | – | significantly reduced | significantly reduced | did not change | – | 63.30 ± 1.139 | 13.08 µM and 13.08 ± 0.690 µM
Oc1cc(O)cc(/C=C/c2cnc3cc(O)ccc3n2)c1 [Compound 6] | 3.1 ± 0.953 | – | – | – | – | – | 120.46 ± 4.237 | –
Oc1cc(O)cc(/C=C/c2ncc3cc(O)ccc3n2)c1 [Compound 7] | 3.54 ± 0.714 | – | significantly reduced | significantly reduced | did not change | – | 92.58 ± 8.745 | 21.67 µM and 21.67 ± 1.101 µM
